Test results reported in ChEMBL document CHEMBL1155159, “Population pharmacokinetics of tafenoquine during malaria prophylaxis in healthy subjects” (Antimicrob Agents Chemother, 2007).

How the values were obtained:
[1] = Clast in po dosed human receiving 600 mg cumulative dose and reporting drug-associated vomiting and/or nausea reported on day 3 at 200 mg daily for 3 days followed by weekly dose of 200 mg for 6 months; format: ADME, organism-based; conditions: in vivo, read-out: Clast
[2] = Clast in po dosed human […] and reporting drug-associated hyperesthesia on day 12 dosed at 200 mg daily for 3 days followed by weekly dose of 200 mg for 6 months; format: ADME, organism-based; conditions: in vivo, read-out: Clast
[3] = Clast in po dosed human receiving 1000 mg cumulative dose and reporting drug-associated abdominal pain on day 20 at 200 mg daily for 3 days followed by weekly dose of 200 mg for 6 months; format: ADME, organism-based, Abdomen; conditions: in vivo, read-out: Clast
[4] = Clast in po dosed human receiving 1000 mg cumulative dose and reporting drug-associated depression reported on day 24 at 200 mg daily for 3 days followed by weekly dose of 200 mg for 6 months; format: ADME, organism-based; conditions: in vivo, read-out: Clast
[5] = Apparent clearance with respect to the bioavailability po dosed human receiving 400 mg cumulative dose and reporting drug-associated diarrhea and/or abdominal pain on day 2 at 200 mg daily for 3 days followed by weekly dose of 200 mg for 6 months; format: ADME, organism-based, Abdomen; conditions: in vivo
[6] = Apparent clearance with respect to the bioavailability po dosed human receiving 200 mg cumulative dose and reporting drug-associated insomnia reported on day 1 at 200 mg daily for 3 days followed by weekly dose of 200 mg for 6 months; format: ADME, organism-based; conditions: in vivo
[7] = Apparent clearance with respect to the bioavailability po dosed human receiving 800 mg cumulative dose and reporting drug-associated with hyperesthesia on day 12 at 200 mg daily for 3 days followed by weekly dose of 200 mg for 6 months; format: ADME, organism-based; conditions: in vivo
[8] = Apparent clearance with respect to the bioavailability po dosed human receiving 1000 mg cumulative dose and reporting drug-associated depression on day 24 at 200 mg daily for 3 days followed by weekly dose of 200 mg for 6 months; format: ADME, organism-based; conditions: in vivo
[9] = Apparent clearance with respect to the bioavailability in human at 600 mg cumulative dose with vomiting and/or nausea reported on day 3 at 200 mg daily for 3 days followed by weekly dose of 200 mg for 6 months, po; format: ADME, organism-based; conditions: in vivo
[10] = Apparent volume of distribution with respect to the bioavailability in po dosed human receiving 400 mg cumulative dose and reporting drug-associated diarrhea and/or abdominal pain on day 2 at 200 mg daily for 3 days followed by weekly dose of 200 mg for 6 months; format: ADME, organism-based, Abdomen; conditions: in vivo, read-out: Vc/F
[11] = Apparent volume of distribution with respect to the bioavailability in po dosed human receiving 400 mg cumulative dose and reporting drug-associated insomnia on day 1 at 200 mg daily for 3 days followed by weekly dose of 200 mg for 6 months; format: ADME, organism-based; conditions: in vivo, read-out: Vc/F
[12] = Apparent volume of distribution with respect to the bioavailability in po dosed human receiving 800 mg cumulative dose and reporting drug-associated hyperesthesia on day 12 at 200 mg daily for 3 days followed by weekly dose of 200 mg for 6 months; format: ADME, organism-based; conditions: in vivo, read-out: Vc/F
[13] = Apparent volume of distribution with respect to the bioavailability in po dosed human receiving 1000 mg cumulative dose and reporting drug-associated abdominal pain on day 20 at 200 mg daily for 3 days followed by weekly dose of 200 mg for 6 months; format: ADME, organism-based, Abdomen; conditions: in vivo, read-out: Vc/F
[14] = Apparent volume of distribution with respect to the bioavailability in po dosed human receiving 1000 mg cumulative dose and reporting drug-associated depression on day 24 at 200 mg daily for 3 days followed by weekly dose of 200 mg for 6 months; format: ADME, organism-based; conditions: in vivo, read-out: Vc/F
[15] = Apparent volume of distribution with respect to the bioavailability in po dosed human receiving 600 mg cumulative dose and reporting drug-associated vomiting and/or nausea on day 3 at 200 mg daily for 3 days followed by weekly dose of 200 mg for 6 months; format: ADME, organism-based; conditions: in vivo, read-out: Vc/F
[16] = Half life po dosed human receiving 400 mg cumulative dose and reporting drug-associated diarrhea and/or abdominal pain on day 2 at 200 mg daily for 3 days followed by weekly dose of 200 mg for 6 months; format: ADME, organism-based, Abdomen; conditions: in vivo
[17] = Half life po dosed human receiving 200 mg cumulative dose and reporting drug-associated insomnia on day 1 at 200 mg daily for 3 days followed by weekly dose of 200 mg for 6 months; format: ADME, organism-based; conditions: in vivo
[18] = Half life po dosed human receiving 800 mg cumulative dose and reporting drug-associated hyperesthesia on day 12 at 200 mg daily for 3 days followed by weekly dose of 200 mg for 6 months; format: ADME, organism-based; conditions: in vivo
[19] = Half life po dosed human receiving 1000 mg cumulative dose and reporting drug-associated abdominal pain on day 20 at 200 mg daily for 3 days followed by weekly dose of 200 mg for 6 months; format: ADME, organism-based, Abdomen; conditions: in vivo
[20] = Half life po dosed human receiving 1000 mg cumulative dose and reporting drug-associated depression on day 24 at 200 mg daily for 3 days followed by weekly dose of 200 mg for 6 months; format: ADME, organism-based; conditions: in vivo
[21] = Half life po dosed human receiving 1000 mg cumulative dose and reporting drug-associated vomiting and/or nausea on day 3 at 200 mg daily for 3 days followed by weekly dose of 200 mg for 6 months; format: ADME, organism-based; conditions: in vivo
[22] = Apparent clearance with respect to bioavailability in po dosed human at 200 mg daily for 3 days followed by weekly dose of 200 mg for 6 months; format: ADME, organism-based; conditions: in vivo
[23] = Apparent volume of distribution with respect to bioavailability in po dosed human at 200 mg daily for 3 days followed by weekly dose of 200 mg for 6 months; format: ADME, organism-based; conditions: in vivo, read-out: Vc/F
[24] = Half life in po dosed human at 200 mg daily for 3 days followed by weekly dose of 200 mg for 6 months; format: ADME, organism-based; conditions: in vivo
[25] = Tmax in fasted human; format: ADME, organism-based; conditions: in vivo
[26] = Tmax in human administered with standard high-fat meal; format: ADME, organism-based; conditions: in vivo
[27] = Trough concentration in po dosed human at 200 mg daily for 3 days followed by weekly dose of 200 mg for 6 months after 4 weeks; format: ADME, organism-based; conditions: in vivo, read-out: Cmin
[28] = Apparent clearance with respect to the bioavailability po dosed human receiving 1000 mg cumulative dose and reporting drug-associated abdominal pain on day 20 at 200 mg daily for 3 days followed by weekly dose of 200 mg for 6 months; format: ADME, organism-based, Abdomen; conditions: in vivo
[29] = Trough concentration in po dosed human at 200 mg daily for 3 days followed by weekly dose of 200 mg for 6 months after 8 weeks; format: ADME, organism-based; conditions: in vivo, read-out: Cmin
[30] = Trough concentration in po dosed human at 200 mg daily for 3 days followed by weekly dose of 200 mg for 6 months after 16 weeks; format: ADME, organism-based; conditions: in vivo, read-out: Cmin

A concentration at 72 h [1] of 315 ng/mL, a concentration at 72 h [2] of 283 ng/mL and a concentration at 72 h [3] of 253 ng/mL were found for COc1cc(C)c2c(Oc3cccc(C(F)(F)F)c3)c(OC)cc(NC(C)CCCN)c2n1 (stereo not given) [TAFENOQUINE] in this work. For the same compound, the concentration at 72 h [4] was 275 ng/mL, the CL/F [5] was 0.983 mL/min/kg and the CL/F [6] was 0.983 mL/min/kg. For the same compound, the CL/F [7] was 0.767 mL/min/kg, the CL/F [8] was 1.02 mL/min/kg and the CL/F [9] was 1.28 mL/min/kg. It also gave a Vd/F [10] of 24.4 L/kg, a Vd/F [11] of 23.2 L/kg and a Vd/F [12] of 20.7 L/kg. For the same compound, the Vd/F [13] was 27.8 L/kg, the Vd/F [14] was 25.1 L/kg and the Vd/F [15] was 26.1 L/kg. The half-life [16] was 12 days, the half-life [17] was 11.3 days and the half-life [18] was 13.1 days. The half-life [19] was 15.1 days, the half-life [20] was 12 days and the half-life [21] was 9.8 days. It also gave a CL/F [22] of 72.8 mL/min, a Vd/F [23] of 1900 L and a half-life [24] of 12.7 days. It also gave a Tmax [25] of 0.775 days, a Tmax [26] of 1.1 days and a concentration at 672 h [27] of 221 ng/mL. The CL/F [28] was 0.883 mL/min/kg, the concentration at 1344 h [29] was 221 ng/mL and the concentration at 2688 h [30] was 221 ng/mL.
